Where a name gives a salt, the structure may show the parent alone. Read-outs that look alike come from different tables or passages of the source.
How the values were obtained:
Human TRPV1 = biological target: T1, Human TRPV1 (Homo sapiens, UniProt Q8NER1); test: Evaluation of agonistic properties using human TRPV1 transiently expressing cells; format: cell-based; conditions: for TRPV-1-agonistic activity (in words): evaluation test for TRPV-1-agonistic properties, summary of Tables 3 and 4
T1 construct: the TRPV1 gene (GenBank NP_542435.2) had been inserted; expressed in transfected cells; host or cells: HEK293 cells (cat #CCL-82.2, ATCC), transient transfection with pcDNA3.1
T1 sequence (Q8NER1 whole entry): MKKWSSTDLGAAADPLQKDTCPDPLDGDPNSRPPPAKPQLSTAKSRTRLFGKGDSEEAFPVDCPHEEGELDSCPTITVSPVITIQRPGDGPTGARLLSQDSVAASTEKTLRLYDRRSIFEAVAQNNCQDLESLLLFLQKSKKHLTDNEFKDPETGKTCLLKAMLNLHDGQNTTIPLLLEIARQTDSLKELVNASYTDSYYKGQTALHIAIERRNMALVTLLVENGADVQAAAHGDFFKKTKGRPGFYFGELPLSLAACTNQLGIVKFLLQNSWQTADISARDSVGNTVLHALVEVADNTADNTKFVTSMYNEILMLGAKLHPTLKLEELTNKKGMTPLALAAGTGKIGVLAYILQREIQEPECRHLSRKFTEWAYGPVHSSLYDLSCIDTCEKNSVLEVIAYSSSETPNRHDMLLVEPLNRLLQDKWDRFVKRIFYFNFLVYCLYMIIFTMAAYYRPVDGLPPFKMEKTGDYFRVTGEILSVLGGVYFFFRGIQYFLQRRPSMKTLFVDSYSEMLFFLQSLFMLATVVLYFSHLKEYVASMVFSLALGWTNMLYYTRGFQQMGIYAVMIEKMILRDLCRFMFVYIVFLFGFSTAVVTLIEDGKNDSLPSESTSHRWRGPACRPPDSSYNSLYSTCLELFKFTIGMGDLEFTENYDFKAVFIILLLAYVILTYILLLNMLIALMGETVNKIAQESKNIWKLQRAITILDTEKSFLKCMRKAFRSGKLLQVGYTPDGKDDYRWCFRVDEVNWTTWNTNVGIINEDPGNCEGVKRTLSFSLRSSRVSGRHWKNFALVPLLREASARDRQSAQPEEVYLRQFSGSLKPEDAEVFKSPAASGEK
From the text: Test Example 1: Evaluation of Agonistic Properties Using Human TRPV1 Transiently Expressing Cells
(1) Generation of Human TRPV1 Transiently Expressing Cells
Human TRPV1 transiently expressing cells were generated and subjected to culture. Specifically, HEK293 cells (cat #CCL-82.2, ATCC) were used as host cells. Human TRPV1 and apoaequorin were transiently expressed by introducing the mammalian cell expression pcDNA3.1 vector (cat #v790-20, Invitrogen) into which the TRPV1 gene (GenBank NP_542435.2) had been inserted.
The Dulbecco's Modified Eagle's Medium (DMEM) medium (cat #11550-043, Thermo Fisher Scientific) containing 10% inactivated fetal bovine serum (cat #10270-106, Thermo Fisher Scientific) was used as the medium, and the culture was carried out in tissue culture dishes (cat #3020-100, Iwaki). During the culture, cells were collected every 2 to 3 days by treating with PBS containing 10% 2.5 g/1-trypsin/[…] solution, phenol red (cat #32777-44, Nacalai Tesque), and passage culture was carried out.
Three days after the passage, cells were collected with 10% trypsin-PBS treatment at a state of about 80% confluency, suspended in a DMEM medium containing 10% fetal bovine serum to 4000 cells/35 μl/well, and seeded into 384-well plates (cat #353962, FALCON).
The day after seeding, Viviren (cat #E6492, Promega) was added (15 μl/well) to a final concentration of 4.5 μM/HBSS (cat #14065-056, Thermo Fisher Scientific)/90 mM HEPES (cat #17514-15, Nacalai Tesque)/0.1% BSA (cat #01281-84, Nacalai Tesque), and after centrifugation, the samples were allowed to stand at room temperature for 2 hours under light-shielded conditions.
(2) Preparation of Test Compounds
For the test compounds, dimethyl sulfoxide solutions were produced at a concentration 1000 times the final concentration, and from these solutions, solutions at concentration 10 times the final concentration were prepared with Hanks/20 mmol/L HEPES/0.10% BSA (cat #01281-84, Nacalai Tesque).
(3) Evaluation of TRPV1-Agonistic Properties
FDSS7000 (Hamamatsu Photonics K.K.) was used for detection of TRPV1 agonist-stimulated luminescence signals. The test compounds were added to plates to which the cells and luminescent substrates had been added. The luminescence signals (center wavelength: 465 nm) after addition of the test compounds were measured, and the Rlu (Max−Min) was calculated.

[1] = Evaluation test for metabolic stability to S9; format: in vitro ADME; conditions: liver S9 fraction, 37° C., 15 minutes, final compound concentration 10 nM
Experimental: Test Example 4: Evaluation Test for Metabolic Stability to S9
The compounds were added to a reaction solution in which the liver S9 fraction was diluted with phosphate buffer, and incubation was initiated at 37° C. (final compound concentration 10 nM, final volume 300 μL). After incubation for 15 minutes, the reaction was stopped by adding the reaction solution to acetonitrile, and centrifugation was carried out. After filtering the supernatant through a filter, the amount of compounds was determined using LC/MS/MS. From the amount of compounds obtained, the residual rate 15 minutes after the initiation of the reaction was calculated relative to the amount of compounds before the initiation of the reaction (0 minutes).

[2] = HEK293 cells transiently expressing human TRPV1 and apoaequorin, luminescence signal Rlu (Max-Min), read-out: TRPV1 EC50

SMILES | EC50 (Human TRPV1; [2]) [nM] | Residual rate (%) [1] [%] | EC50 (Human TRPV1) [nM] | TRPV-1-agonistic activity (in words) (Human TRPV1)
COc1cc(CC(=O)Nc2cccc([C@H]3CC[C@@H](OC(=O)Cc4ccc(Cl)cc4)CC3)c2)ccc1O [Example 14, cis-4-{3-[2-(4-hydroxy-3-methoxyphenyl)acetamido]phenyl}cyclohexyl (4-chlorophenyl)acetate] | 6.3 | 11 |  | 
COc1cc(CC(=O)Nc2ccnc(-c3cccc(OC(=O)CC4CCCCC4)c3)c2)ccc1O [Example 31, 3-{4-[2-(4-hydroxy-3-methoxyphenyl)acetamido]pyridin-2-yl}phenyl cyclohexylacetate] | 14.9 | <1 |  | 
COc1cc(CC(=O)Nc2cccc([C@H]3CC[C@@H](OC(=O)CC4CCOCC4)CC3)c2)ccc1O [Example 11, cis-4-{3-[2-(4-hydroxy-3-methoxyphenyl)acetamido]phenyl}cyclohexyl (oxa-4-yl)acetate] | 21.3 | 91 |  | 
COc1cc(CC(=O)Nc2cccc([C@H]3CC[C@@H](OC(=O)COc4ccccc4)CC3)c2)ccc1O [Example 6, cis-4-{3-[2-(4-hydroxy-3-methoxyphenyl)acetamido]phenyl}cyclohexyl phenoxyacetate] | 5.3 | 1 |  | 
COc1cc(CC(=O)Nc2cccc(-c3cccc(OC(=O)Cc4ccccc4)c3)c2)ccc1O [Example 18, 3′-[2-(4-hydroxy-3-methoxyphenyl)acetamido][1,1′-biphenyl]-3-yl phenylacetate] |  | <1 | 5.4 | 
COc1cc(CC(=O)Nc2cccc(-c3cccc(OC(=O)CC4CCCCC4)c3)c2)ccc1O [Example 30, 3′-[2-(4-hydroxy-3-methoxyphenyl)acetamido][1,1′-biphenyl]-3-yl cyclohexylacetate] | 7.2 | <1 |  | 
COc1cc(CC(=O)Nc2cccc(-c3cccc(OC(=O)C(C)C)c3)c2F)ccc1O [Example 23, 2′-fluoro-3′-[2-(4-hydroxy-3-methoxyphenyl)acetamido][1,1′-biphenyl]-3-yl 2-methylpropanoate] | 15.2 | <1 |  | 
COc1cc(CC(=O)Nc2cccc([C@H]3CC[C@@H](OC(=O)Cc4cccs4)CC3)c2)ccc1O [Example 13, cis-4-{3-[2-(4-hydroxy-3-methoxyphenyl)acetamido]phenyl}cyclohexyl (thiophen-2-yl)acetate] | 9 | 89 |  | 
COc1cc(CC(=O)Nc2cccc(-c3cccc(OC(=O)C(C)C)c3)c2OC)ccc1O [Example 21, 3′-[2-(4-hydroxy-3-methoxyphenyl)acetamido]-2′-methoxy[1,1′-biphenyl]-3-yl 2-methylpropanoate] | 6750 | <1 |  | 
COc1cc(CC(=O)Nc2cccc([C@H]3CC[C@@H](OC(=O)Cc4ccccc4Cl)CC3)c2)ccc1O [Example 10, cis-4-{3-[2-(4-hydroxy-3-methoxyphenyl)acetamido]phenyl}cyclohexyl (2-chlorophenyl)acetate] | 4.8 | 67 |  | 
COc1cc(CNC(=O)c2cccc(-c3cccc(OC(=O)C(C)C)c3)c2)ccc1O [Example 44, 3′-1{[(4-hydroxy-3-methoxyphenyl)methyl]carbamoyl}[1,1′-biphenyl]-3-yl 2-methylpropanoate] | 10.2 | <1 |  | 
COc1cc(CC(=O)Nc2ccc(F)c(-c3cccc(OC(=O)C(C)C)c3)c2)ccc1O [Example 19, 2′-fluoro-5′-[2-(4-hydroxy-3-methoxyphenyl)acetamido][1,1′-biphenyl]-3-yl 2-methylpropanoate] | 2.7 | <1 |  | stronger TRPV-1-agonistic activity
COc1cc(CC(=O)Nc2cccc([C@H]3CC[C@@H](OC(=O)C(C)C)CC3)c2)ccc1O [Example 17, cis-4-{3-[2-(4-hydroxy-3-methoxyphenyl)acetamido]phenyl}cyclohexyl 2-methylpropanoate] | 2.6 | <1 |  | stronger TRPV-1-agonistic activity
COc1cc(CC(=O)Nc2cccc(-c3cccc(OC(=O)Cc4ccc(C)cc4)c3)c2)ccc1O [Example 27, 3′-[2-(4-hydroxy-3-methoxyphenyl)acetamido][1,1′-biphenyl]-3-yl (4-methylphenyl)acetate] | 11.1 | <1 |  | 
COc1cc(CNC(=O)c2cccc(-c3cccc(OC(=O)CC4CCCCC4)c3)c2)ccc1O [Example 45, 3′-{[(4-hydroxy-3-methoxyphenyl)methyl]carbamoyl}[1,1′-biphenyl]-3-yl cyclohexylacetate] | 31.3 | <1 |  | 
COc1cc(CC(=O)Nc2cccc(-c3cccc(OC(=O)CC4CCOCC4)c3)c2)ccc1O [Example 29, 3′-[2-(4-hydroxy-3-methoxyphenyl)acetamido][1,1′-biphenyl]-3-yl (oxa-4-yl)acetate] | 13.2 | <1 |  | 
COc1cc(CC(=O)Nc2cccc(-c3cccc(OC(=O)C4CCCCC4)c3)n2)ccc1O [Example 34, 3-{6-[2-(4-hydroxy-3-methoxyphenyl)acetamido]pyridin-2-yl}phenyl cyclohexanecarboxylate] | 12.8 | <1 |  | 
COc1cc(CC(=O)Nc2ccnc(-c3cccc(OC(=O)C4CCCCC4)c3)c2)ccc1O [Example 33, 3-{4-[2-(4-hydroxy-3-methoxyphenyl)acetamido]pyridin-2-yl}phenyl cyclohexanecarboxylate hydrochloride] | 12.5 | <1 |  | 
CCC(=O)Oc1cccc(-c2cccc(NC(=O)Cc3ccc(O)c(OC)c3)c2)c1 [Example 16, 3′-[2-(4-hydroxy-3-methoxyphenyl)acetamido][1,1′-biphenyl]-3-yl propanoate] | 6.3 | <1 |  | 
COc1cc(CC(=O)Nc2cc(-c3cccc(OC(=O)C(C)C)c3)ccc2F)ccc1O [Example 22, 4′-fluoro-3′-[2-(4-hydroxy-3-methoxyphenyl)acetamido][1,1′-biphenyl]-3-yl 2-methylpropanoate] | 6.8 | <1 |  | 
COc1cc(CC(=O)Nc2cccc(-c3cccc(OC(=O)Cc4ccccc4F)c3)c2)ccc1O [Example 28, 3′-[2-(4-hydroxy-3-methoxyphenyl)acetamido][1,1′-biphenyl]-3-yl (2-fluorophenyl)acetate] | 8.8 | <1 |  | 
COc1cc(CC(=O)Nc2cccc(-c3ccc(OC(=O)C(C)C)cc3)c2)ccc1O [Example 4, 3′-[2-(4-hydroxy-3-methoxyphenyl)acetamido][1,1′-biphenyl]-4-yl 2-methylpropanoate] | 33.6 | <1 |  | 
COc1cc(CC(=O)Nc2cccc([C@H]3CC[C@@H](OC(=O)Cc4cccc(C)c4)CC3)c2)ccc1O [Example 9, cis-4-{3-[2-(4-hydroxy-3-methoxyphenyl)acetamido]phenyl}cyclohexyl (3-methylphenyl)acetate] | 2 | 88 |  | 
COc1cc(CC(=O)Nc2cccc([C@H]3CC[C@@H](OC(=O)Cc4ccc(F)cc4)CC3)c2)ccc1O [Example 8, cis-4-{3-[2-(4-hydroxy-3-methoxyphenyl)acetamido]phenyl}cyclohexyl (4-fluorophenyl)acetate] | 6.1 | 89 |  | 
COc1cc(CNC(=O)c2cccc(-c3cccc(OC(=O)C(C)C)c3)n2)ccc1O [Example 47, 3-(6-{[(4-hydroxy-3-methoxyphenyl)methyl]carbamoyl}pyridin-2-yl)phenyl 2-methylpropanoate] | 148 | <1 |  | 
COc1cc(CC(=O)Nc2cccc(-c3cccc(O)c3)c2)ccc1O [compound 14] | 1650 |  |  | 

From patent US12590063B2, “Phenol derivative” (Sumitomo Pharma Co., Ltd., priority 2020, dated 2026)
